Here are results for 3 compounds from patent publication US11040962B2, “Pesticidally active pyrazole derivatives” (SYNGENTA PARTICIPATIONS AG, priority 2017, dated 2021).

One data set concerns Spodoptera littoralis. In words: Spodoptera littoralis (Egyptian cotton leaf worm) cotton leaf disc spray test. In kind it is in vivo. The settings on record: foliar, 72 h, application rate 200 ppm, L1 larvae, 3 days after infestation, vs untreated, read-out: control (at least one of mortality, anti-feedant effect, growth inhibition). As to the method:
Spodoptera littoralis (Egyptian Cotton Leaf Worm)
Cotton leaf discs were placed on agar in 24-well microtiter plates and sprayed with aqueous test solutions prepared from 10′000 ppm DMSO stock solutions. After drying the leaf discs were infested with five L1 larvae. The samples were assessed for mortality, anti-feedant effect, and growth inhibition in comparison to untreated samples 3 days after infestation. Control of Spodoptera littoralis by a test sample is when at least one of mortality, anti-feedant effect, and growth inhibition is higher than the untreated sample.

The subject of a further data set is Plutella xylostella. Nature of the data set: Plutella xylostella (diamond back moth) artificial diet test. In kind it is in vivo. The settings on record: 120 h, application rate 200 ppm, L2 larvae, 5 days after infestation, vs untreated, read-out: effect in at least one of the two categories (mortality or growth inhibition). As to the method:
Plutella xylostella (Diamond Back Moth):
24-well microtiter plates with artificial diet were treated with aqueous test solutions prepared from 10′000 ppm DMSO stock solutions by pipetting. After drying, the plates were infested with L2 larvae (10 to 15 per well). The samples were assessed for mortality and growth inhibition in comparison to untreated samples 5 days after infestation. The following compounds gave an effect of at least 80% in at least one of the two categories (mortality or growth inhibition) at an application rate of 200 ppm: 1, 2, 3, 4, 7, 8, 9, 10, 11, 12, 13, 14, 15, 16, 17, 18, 19, 20, 21, 22, 23, 24, 26, 27, 28 and 29.

In another data set the test system is Diabrotica balteata. In words: Diabrotica balteata (corn root worm) maize sprout spray test. The data set is classed as in vivo. The settings on record: 96 h, application rate 200 ppm, L2 larvae, 4 days after infestation, vs untreated, read-out: effect in at least one of the two categories (mortality or growth inhibition). On the procedure: Diabrotica balteata, (Corn Root Worm)
Maize sprouts, placed on an agar layer in 24-well microtiter plates were treated with aqueous test solutions prepared from 10′000 ppm DMSO stock solutions by spraying. After drying, the plates were infested with L2 larvae (6 to 10 per well). The samples were assessed for mortality and growth inhibition in comparison to untreated samples 4 days after infestation. The following compounds gave an effect of at least 80% in at least one of the two categories (mortality or growth inhibition) at an application rate of 200 ppm: 1, 2, 3, 4, 7, 8, 9, 11, 12, 13, 14, 15, 16, 17, 18, 19, 20, 21, 27, 28 and 29.

The subject of another data set is Thrips tabaci. Nature of the data set: Thrips tabaci (onion thrips) sunflower leaf disc spray test. The data set is classed as in vivo. The settings on record: foliar, 144 h, application rate 200 ppm, population of mixed ages, 6 days after infestation. On the procedure: Thrips tabaci (Onion Thrips):
Sunflower leaf discs were placed on agar in 24-well microtiter plates and sprayed with aqueous test solutions prepared from 10′000 ppm DMSO stock solutions. After drying the leaf discs were infested with a Thrips population of mixed ages. The samples were assessed for mortality 6 days after infestation.

The subject of another data set is Tetranychus urticae. Nature of the data set: Tetranychus urticae (two-spotted spider mite) bean leaf disc spray test. The settings on record: foliar, 192 h, application rate 200 ppm, 8 days after infestation, read-out: mortality on mixed population (mobile stages). The data set is classed as in vivo. As to the method:
Tetranychus urticae (Two-Spotted Spider Mite):
Bean leaf discs on agar in 24-well microtiter plates were sprayed with aqueous test solutions prepared from 10′000 ppm DMSO stock solutions. After drying the leaf discs were infested with a mite population of mixed ages. The samples were assessed for mortality on mixed population (mobile stages) 8 days after infestation.

A further data set deals with Euschistus heros. In words: Euschistus heros (neotropical brown stink bug) soybean leaf spray test. In kind it is in vivo. The settings on record: 120 h, application rate 200 ppm, N2 nymphs, 5 days after infestation, vs untreated, read-out: effect in at least one of the two categories (mortality or growth inhibition). On the procedure:
Euschistus heros (Neotropical Brown Stink Bug)
Soybean leaves on agar in 24-well microtiter plates were sprayed with aqueous test solutions prepared from 10′000 ppm DMSO stock solutions. After drying the leaves were infested with N2 nymphs. The samples were assessed for mortality and growth inhibition in comparison to untreated samples 5 days after infestation. The following compounds gave an effect of at least 80% in at least one of the two categories (mortality or growth inhibition) at an application rate of 200 ppm: 1, 2, 3, 7, 8, 9, 12, 13, 14, 15, 17, 18, 21, 25, 26, 27, 28 and 29.

As to `CN(C(=O)c1cc(-c2cn(-c3c(C(F)(F)F)c(C(F)(F)C(F)(F)F)nn3C)nn2)sc1C#N)C1(C#N)CC1` [Compound 5, 2-cyano-N-(1-cyanocyclopropyl)-N-methyl-5-[1-[2-methyl-5-(1,1,2,2,2-pentafluoroethyl)-4-(trifluoromethyl)pyrazol-3-yl]triazol-4-yl]thiophene-3-carboxamide], the melting point fell in the range of 185 to 187 °C.
The same measure, in the same setting: to `CCN(C(=O)c1cc(-c2cn(-c3c(C(F)(F)F)c(C(F)(F)C(F)(F)F)nn3C)nn2)sc1C#N)C1(C#N)CC1` [Compound 6, 2-cyano-N-(1-cyanocyclopropyl)-N-ethyl-5-[1-[2-methyl-5-(1,1,2,2,2-pentafluoroethyl)-4-(trifluoromethyl)pyrazol-3-yl]triazol-4-yl]thiophene-3-carboxamide] belongs 62 to 64 °C.
Take `Cn1nc(C(F)(F)C(F)(F)F)c(C(F)(F)F)c1-c1csc(-c2cc(C(=O)NC3CC3)c(C#N)s2)c1` [Compound 27, 2-cyano-N-cyclopropyl-5-[4-[2-methyl-5-(1,1,2,2,2-pentafluoroethyl)-4-(trifluoromethyl)pyrazol-3-yl]-2-thienyl]thiophene-3-carboxamide]: in the data set on Spodoptera littoralis, the percent control (mortality, anti-feedant effect or growth inhibition) at 200 ppm is no less than 80%. Further, the percent effect (mortality or growth inhibition) at 200 ppm in the data set with Plutella xylostella, in the data set with Diabrotica balteata and in the data set with Euschistus heros was no less than 80% each time. Besides, the mortality at 200 ppm in the data set on Thrips tabaci and in the data set with Tetranychus urticae was no less than 80% throughout.
